Columns and labels:
POLCO (wild buckwheat) [1] = assay: Pre-emergence herbicidal activity, cool season; format: in vivo, Polygonum convolvulus; details: lowest tested rate with 80% or greater inhibition; rates 300, 100, 30, 10 g/ha; about 14 days
Summary of the method: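 Herbicidal efficacy was judged visually as percent inhibition compared with untreated plants some 14 days after treatment, giving GR80 over doses of 10 to 300 g/ha. Proso millet and crabgrass grew at 30/21 °C; blackgrass and wild buckwheat grew at 18/13 °C.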

SASKR (russian thistle) = assay: Pre-emergence herbicidal activity, cool season; format: in vivo, Salsola kali; details: lowest tested rate with 80% or greater inhibition; rates 300, 100, 30, 10 g/ha; about 14 days
Summary of the method: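 Seeds sown in sterilised fertilised topsoil received surface-applied compound in 50:50 acetone/water, typically at 300, 100, 30 and 10 g/ha, then greenhouse-grown at 30/21° C (warm-season species) or 18/13° C (cool-season species). Percent inhibition versus untreated plants was scored at about 14 days, giving GR80; an asterisk marks activity short of 80% at the top rate.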

AMARE (redroot pigweed) = assay: Pre-plant incorporated (PPI) herbicidal activity, warm season; format: in vivo, Amaranthus retroflexus
Procedure: (§1) In another set of tests, the pre-plant incorporated (PPI) activity of compounds of this invention was evaluated on the same species as for the pre-emergence tests described above. In the PPI tests the following procedure, designed to simulate PPI application, was used.
(§2) A pre-prepared topsoil mixture (described above) was placed in a pot and compacted to a depth of 1.0 to 1.25 cm from the top of the pot. Seeds of each of several monocotyledonous and dicotyledonous annual plant species were placed on top of the soil. A sufficient quantity of soil to cover the seeds and level fill the pot was weighed into an open container. A known amount of the test compound was dissolved or suspended in an organic solvent and applied by spraying to this cover soil. The cover soil was thoroughly mixed to distribute the test compound throughout the cover soil, and was then applied as a cover layer over the seeds. Untreated soil was used as a cover layer for control pots. After treatment the plants were placed in a greenhouse where they received 0.64 cm of overhead irrigation. All subsequent watering consisted of a light overhead mist and/or subirrigation as needed for germination and growth. Tables 9 and 10 below relate to warm season plant species which were placed after pre-emergence treatment in a greenhouse with a 30/21° C. day/night temperature regime. Tables 11 and 12 below relates to cool season plant species placed after pre-emergence treatment in a greenhouse or growth chamber with an 18/13° C. day/night temperature regime. Only the compounds of Examples 1, 6, 8, 11, 13 and 15-20 were included in PPI tests.
(§3) Approximately 14 days after planting and treating, the plants were observed and herbicidal efficacy recorded as percent inhibition by comparison with untreated plants.

ECHCG (barnyardgrass) = assay: as above; format: in vivo, Echinochloa crus-galli
Procedure: as §1, §2, §3

POLCO (wild buckwheat) [2] = assay: Pre-plant incorporated (PPI) herbicidal activity, cool season; format: in vivo, Polygonum convolvulus; details: pre-plant incorporated; lowest tested rate with 80% or greater inhibition; about 14 days
Procedure: as §1, §2, §3

[3] = system: VERPE (creeping speedwell); assay: as above; format: in vivo, Veronica persicaria
Procedure: as §1, §2, §3

ALOMY (blackgrass) = assay: as above; format: in vivo, Alopecurus myosuroides
Procedure: as §1, §2, §3

XANST (cocklebur) = assay: Pre-plant incorporated (PPI) herbicidal activity, warm season; format: in vivo, Xanthium strumarium; details: Xanthium strumarium, PPI application, read-out: Percent inhibition XANST
Procedure: as §1, §2, §3

wheat (TRZAW) = assay: Selectivity test, PPI, cool season crop; format: in vivo, Triticum aestivum; details: Triticum aestivum, PPI application, read-out: Percent inhibition TRZAW
Procedure: as §2, §3
(§4) Additional pre-emergence and PPI tests were conducted by the procedures described above, on warm and cool season weed species in the presence of crop species, to assess herbicidal selectivity. Crop species included in warm season tests were corn (Zea mays, ZEAMX), rice (Oryza sativa, ORYSA) and soybean (Glycine max, GLYMX). Crop species included in cool season tests were wheat (Triticum aestivum, TRZAW), barley (Hordeunm vulgare, HORVX) and oilseed rape (Brassica napus, BRSNS).
(§5) Tables 15 and 16 relate to pre-emergence and PPI tests respectively on warm season species. Table 17 relates to pre-emergence tests on cool season species.

oilseed rape (BRSNS) = assay: Selectivity test, PPI, cool season crop; format: in vivo, Brassica napus; details: Brassica napus, PPI application, read-out: Percent inhibition BRSNS
Procedure: as §2, §3, §4, §5

[4] = pre-plant incorporated, lowest tested rate with 80% or greater inhibition, about 14 days

C=C(Br)CC(F)(F)S(=O)(=O)c1ncn(C(=O)N(CC)CC)n1 [Example 19]
Pre-emergence activity GR80, POLCO (POLCO (wild buckwheat) [1]): [empty] | Pre-emergence activity GR80, SASKR (SASKR (russian thistle)): 100 g/ha | inhibition at 10 g/ha (AMARE (redroot pigweed); Amaranthus retroflexus, PPI application, 10 g/ha, read-out: Percent inhibition AMARE): 0% | inhibition at 30 g/ha (AMARE (redroot pigweed); Amaranthus retroflexus, PPI application, 30 g/ha, read-out: Percent inhibition AMARE): 20% | inhibition at 100 g/ha (AMARE (redroot pigweed); Amaranthus retroflexus, PPI application, 100 g/ha, read-out: Percent inhibition AMARE): 95% | inhibition at 300 g/ha (AMARE (redroot pigweed); Amaranthus retroflexus, PPI application, 300 g/ha, read-out: Percent inhibition AMARE): 95% | inhibition at 900 g/ha (AMARE (redroot pigweed); Amaranthus retroflexus, PPI application, 900 g/ha, read-out: Percent inhibition AMARE): 100% | PPI activity (GR80) AMARE (AMARE (redroot pigweed); pre-plant incorporated, GR80 = lowest tested rate with 80% or greater inhibition, approx. 14 days after treating, 30/21° C.): 100 g/ha | inhibition at 10 g/ha (ECHCG (barnyardgrass); Echinochloa crus-galli, PPI application, 10 g/ha, read-out: Percent inhibition ECHCG): 20% | inhibition at 30 g/ha (ECHCG (barnyardgrass); Echinochloa crus-galli, PPI application, 30 g/ha, read-out: Percent inhibition ECHCG): 20% | inhibition at 100 g/ha (ECHCG (barnyardgrass); Echinochloa crus-galli, PPI application, 100 g/ha, read-out: Percent inhibition ECHCG): 100% | inhibition at 300 g/ha (ECHCG (barnyardgrass); Echinochloa crus-galli, PPI application, 300 g/ha, read-out: Percent inhibition ECHCG): 100% | inhibition at 900 g/ha (ECHCG (barnyardgrass); Echinochloa crus-galli, PPI application, 900 g/ha, read-out: Percent inhibition ECHCG): 100% | PPI activity GR80, ECHCG (ECHCG (barnyardgrass); [4]): 30 g/ha | PPI activity GR80, POLCO (POLCO (wild buckwheat) [2]): * (activity observed, at least at highest rate, but <80% inhibition) | PPI activity GR80, VERPE [3, 4]: [empty] | inhibition at 10 g/ha ([3]; weed, PPI application, 10 g/ha, read-out: Percent inhibition VERPE): 0% | inhibition at 30 g/ha ([3]; weed, PPI application, 30 g/ha, read-out: Percent inhibition VERPE): 40% | inhibition at 100 g/ha ([3]; weed, PPI application, 100 g/ha, read-out: Percent inhibition VERPE): 20% | inhibition at 300 g/ha ([3]; weed, PPI application, 300 g/ha, read-out: Percent inhibition VERPE): 20% | inhibition at 900 g/ha ([3]; weed, PPI application, 900 g/ha, read-out: Percent inhibition VERPE): 99% | inhibition at 10 g/ha (ALOMY (blackgrass); Alopecurus myosuroides, weed, PPI application, 10 g/ha, read-out: Percent inhibition ALOMY): 60% | inhibition at 30 g/ha (ALOMY (blackgrass); Alopecurus myosuroides, weed, PPI application, 30 g/ha, read-out: Percent inhibition ALOMY): 50% | inhibition at 100 g/ha (ALOMY (blackgrass); Alopecurus myosuroides, weed, PPI application, 100 g/ha, read-out: Percent inhibition ALOMY): 70% | inhibition at 300 g/ha (ALOMY (blackgrass); Alopecurus myosuroides, weed, PPI application, 300 g/ha, read-out: Percent inhibition ALOMY): 100% | inhibition at 900 g/ha (ALOMY (blackgrass); Alopecurus myosuroides, weed, PPI application, 900 g/ha, read-out: Percent inhibition ALOMY): 100% | PPI activity GR80, ALOMY (ALOMY (blackgrass); [4]): 30 g/ha | inhibition at 10 g/ha (XANST (cocklebur); 10 g/ha): 0% | inhibition at 30 g/ha (XANST (cocklebur); 30 g/ha): 0% | inhibition at 100 g/ha (XANST (cocklebur); 100 g/ha): 0% | inhibition at 300 g/ha (XANST (cocklebur); 300 g/ha): 0% | inhibition at 900 g/ha (XANST (cocklebur); 900 g/ha): 90% | inhibition at 10 g/ha (wheat (TRZAW); 10 g/ha): 0% | inhibition at 30 g/ha (wheat (TRZAW); 30 g/ha): 0% | inhibition at 100 g/ha (wheat (TRZAW); 100 g/ha): 30% | inhibition at 300 g/ha (wheat (TRZAW); 300 g/ha): 70% | inhibition at 900 g/ha (wheat (TRZAW); 900 g/ha): 60% | inhibition at 10 g/ha (oilseed rape (BRSNS); 10 g/ha): 0% | inhibition at 30 g/ha (oilseed rape (BRSNS); 30 g/ha): 0% | inhibition at 100 g/ha (oilseed rape (BRSNS); 100 g/ha): 0% | inhibition at 300 g/ha (oilseed rape (BRSNS); 300 g/ha): 60% | inhibition at 900 g/ha (oilseed rape (BRSNS); 900 g/ha): 95%

CCN(CC)C(=O)n1cnc(S(=O)(=O)C(F)(F)C(F)(F)SC)n1 [Example 14]
Pre-emergence activity GR80, POLCO (POLCO (wild buckwheat) [1]): 300 g/ha | Pre-emergence activity GR80, SASKR (SASKR (russian thistle)): [empty]
